In ChEMBL document CHEMBL5620347, “Discovery of thiohydantoin based antagonists of androgen receptor with efficient degradation for the treatment of prostate cancer” (Eur J Med Chem, 2023):
Values belong to the molecule of their own block, whether it stands above or below them.

Legend:
[1] = AUC (0 to infinity) in Sprague-Dawley rat at 5 mg/kg, iv measured upto 1440 mins by LC-MS/MS analysis; type: ADME, organism-based; settings: in vivo
[2] = Half life in Sprague-Dawley rat at 5 mg/kg, iv measured upto 1440 mins by LC-MS/MS analysis; type: ADME, organism-based; settings: in vivo
[3] = Volume of distribution at steady state in Sprague-Dawley rat at 5 mg/kg, iv measured upto 1440 mins by LC-MS/MS analysis; type: ADME, organism-based; settings: in vivo, read-out: Vdss
[4] = Clearance in Sprague-Dawley rat at 5 mg/kg, iv measured upto 1440 mins by LC-MS/MS analysis; type: ADME, organism-based; settings: in vivo
[5] = Cmax in Sprague-Dawley rat at 20 mg/kg, po measured upto 1440 mins by LC-MS/MS analysis; type: ADME, organism-based; settings: in vivo
[6] = AUC (0 to infinity) in Sprague-Dawley rat at 20 mg/kg, po measured upto 1440 mins by LC-MS/MS analysis; type: ADME, organism-based; settings: in vivo, 24 h
[7] = Half life in Sprague-Dawley rat at 20 mg/kg, po measured upto 1440 mins by LC-MS/MS analysis; type: ADME, organism-based; settings: in vivo
[8] = Volume of distribution at steady state in Sprague-Dawley rat at 20 mg/kg, po measured upto 1440 mins by LC-MS/MS analysis; type: ADME, organism-based; settings: in vivo, 24 h
[9] = Clearance in Sprague-Dawley rat at 20 mg/kg, po measured upto 1440 mins by LC-MS/MS analysis; type: ADME, organism-based; settings: in vivo, 24 h
[10] = Oral bioavailability in Sprague-Dawley rat at 20 mg/kg measured upto 1440 mins by LC-MS/MS analysis; type: ADME, organism-based; settings: in vivo
[11] = AUC (0 to infinity) in Sprague-Dawley rat at 20 mg/kg, ip measured upto 1440 mins by LC-MS/MS analysis; type: ADME, organism-based; settings: in vivo
[12] = Volume of distribution at steady state in Sprague-Dawley rat at 20 mg/kg, ip measured upto 1440 mins by LC-MS/MS analysis; type: ADME, organism-based; settings: in vivo, 24 h
[13] = Clearance in Sprague-Dawley rat at 20 mg/kg, ip measured upto 1440 mins by LC-MS/MS analysis; type: ADME, organism-based; settings: in vivo
[14] = Bioavailability in Sprague-Dawley rat at 20 mg/kg, ip measured upto 1440 mins by LC-MS/MS analysis; type: ADME, organism-based; settings: in vivo
[15] = Toxicity in BALB/c nude mouse xenografted with human LNCaP cells assessed as reduction in body weight at 30 mg/kg, ip measured every 2 days for 28 days; type: organism-based; settings: in vivo, 672 h, time 28 day
[16] = Toxicity in BALB/c nude mouse xenografted with human 22Rv1 cells assessed as reduction in body weight at 30 mg/kg, ip measured every 2 days for 28 days; type: organism-based, CWR22R; settings: in vivo, 672 h, time 28 day
[17] = Toxicity in BALB/c mouse assessed as appearance of lesions in lung at 30 mg/kg, ip measured after 3 days by H and E staining based analysis; type: organism-based; settings: in vivo, 72 h, time 3 day
[18] = Toxicity in BALB/c mouse assessed as appearance of lesions in liver at 30 mg/kg, ip measured after 3 days by H and E staining based analysis; type: organism-based; settings: in vivo, 72 h, time 3 day
[19] = Toxicity in BALB/c mouse assessed as appearance of lesions in spleen at 30 mg/kg, ip measured after 3 days by H and E staining based analysis; type: organism-based; settings: in vivo, 72 h, time 3 day
[20] = Toxicity in BALB/c mouse assessed as appearance of lesions in kidney at 30 mg/kg, ip measured after 3 days by H and E staining based analysis; type: organism-based; settings: in vivo, 72 h, time 3 day
[21] = Toxicity in BALB/c mouse assessed as appearance of lesions in heart at 30 mg/kg, ip measured after 3 days by H and E staining based analysis; type: organism-based; settings: in vivo, 72 h, time 3 day
[22] = Toxicity in BALB/c mouse assessed as effect on serum ALT level at 30 mg/kg, ip measured after 3 days by biochemical analysis; type: organism-based; settings: in vivo, 72 h, time 3 day
[23] = Toxicity in BALB/c mouse assessed as effect on serum AST level at 30 mg/kg, ip measured after 3 days by biochemical analysis; type: organism-based; settings: in vivo, 72 h, time 3 day
[24] = Toxicity in BALB/c mouse assessed as effect on BUN level at 30 mg/kg, ip measured after 3 days by biochemical analysis; type: organism-based; settings: in vivo, 72 h, time 3 day
[25] = Toxicity in BALB/c mouse assessed as effect on creatinine level at 30 mg/kg, ip measured after 3 days by biochemical analysis; type: organism-based; settings: in vivo, 72 h, time 3 day
[26] = Toxicity in BALB/c mouse assessed as effect on serum uric acid level at 30 mg/kg, ip measured after 3 days by biochemical analysis; type: organism-based; settings: in vivo, 72 h, time 3 day
LNCaP [27] = assay: Antitumor activity against human LNCaP cells xenografted in BALB/c nude mouse assessed as tumor growth inhibition at 30 mg/kg, ip measured every 2 days for 28 days relative to control; settings: 672 h, read-out: TGI
CWR22R = assay: Antitumor activity against human 22Rv1 cells xenografted in BALB/c nude mouse assessed as tumor growth inhibition at 30 mg/kg, ip measured every 2 days for 28 days relative to control; settings: 22Rv1, 672 h, read-out: TGI
LNCaP [28] = assay: cells; settings: Homo sapiens, 72 h
Description: Cytotoxicity against androgen receptor dependent human LNCaP cells assessed as inhibition of cell growth incubated for 72 hrs by MTT assay

DU-145 = assay: cells; settings: Homo sapiens, DU-145, 72 h
Description: Cytotoxicity against androgen receptor independent human DU-145 cells assessed as inhibition of cell growth incubated for 72 hrs by MTT assay

Structure (SMILES): N#Cc1ccc(N2C(=O)CN(CCCN3CCCc4ccccc43)C2=S)cc1C(F)(F)F
- AUC(0-inf) [1]: 3500 ng·h/mL
- half-life [2]: 5.02 h
- Vd [3]: 6.9 L/kg
- clearance [4]: 15.7 mL/min/kg
- Cmax [5]: 92.1 ng/mL
- AUC [6]: 805.18 ng·h/mL
- half-life [7]: 3.06 h
- Vdss [8]: 16.72 L/kg
- CL [9]: 84.8 mL/min/kg
- bioavailability [10]: 5.74%
- AUC(0-inf) [11]: 9160 ng·h/mL
- Vdss [12]: 8.77 L/kg
- CL/F [13]: 60.2 mL/min/kg
- bioavailability [14]: 67.2%
- Activity [15]: Non-Toxic
- Activity [16]: Non-Toxic
- Activity [17]: Non-Toxic
- Activity [18]: Non-Toxic
- Activity [19]: Non-Toxic
- Activity [20]: Non-Toxic
- Activity [21]: Non-Toxic
- Activity [22]: Non-Toxic
- Activity [23]: Non-Toxic
- Activity [24]: Non-Toxic
- Activity [25]: Non-Toxic
- Activity [26]: Non-Toxic

- IC50 (LNCaP [28]): 13.9 µM
- IC50 (DU-145): > 50 µM
Structure (SMILES): CNC(=O)c1ccc(N2C(=S)N(c3ccc(C#N)c(C(F)(F)F)c3)C(=O)C2(C)C)cc1F [ENZALUTAMIDE]
- inhibition in vivo at 30 mg/kg (LNCaP [27]): 41.5%
- inhibition in vivo at 30 mg/kg (CWR22R): 39.9%
